Test results taken from US20100204203A1, “Chemical Compounds 637: Pyridopyrimidinediones as PDE4 Inhibitors” (priority 2007, published 2010).

Each compound was assayed against recombinant Human Phosphodiesterase B2 (PDE4B2) (Homo sapiens, UniProt Q07343) (assay: Human Phosphodiesterase B2 Radiometric Assay (yttrium silicate SPA beads, [3H]cyclic AMP)). Conditions: recombinant human PDE4B2, radiometric SPA assay, 8 nM [3H]cyclic AMP; read-out: PDE4B2 pIC50 (converted).
Format: biochemical
In short: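 Compounds were preincubated 30 min at 30 °C with 0.1 mg/mL PDE4B2 in 50 mM HEPES pH 7.5, 8.3 mM MgCl2, 1.7 mM EGTA, 0.01% Brij 35. Then 8 nM [3H]cAMP was added for 20 min, stopped with yttrium silicate SPA beads plus 18 mM ZnSO4 capturing product 5′AMP; pIC50 by curve fitting.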

Sequence of recombinant Human Phosphodiesterase B2 (PDE4B2) (Q07343 1-564 isoform Q07343-2): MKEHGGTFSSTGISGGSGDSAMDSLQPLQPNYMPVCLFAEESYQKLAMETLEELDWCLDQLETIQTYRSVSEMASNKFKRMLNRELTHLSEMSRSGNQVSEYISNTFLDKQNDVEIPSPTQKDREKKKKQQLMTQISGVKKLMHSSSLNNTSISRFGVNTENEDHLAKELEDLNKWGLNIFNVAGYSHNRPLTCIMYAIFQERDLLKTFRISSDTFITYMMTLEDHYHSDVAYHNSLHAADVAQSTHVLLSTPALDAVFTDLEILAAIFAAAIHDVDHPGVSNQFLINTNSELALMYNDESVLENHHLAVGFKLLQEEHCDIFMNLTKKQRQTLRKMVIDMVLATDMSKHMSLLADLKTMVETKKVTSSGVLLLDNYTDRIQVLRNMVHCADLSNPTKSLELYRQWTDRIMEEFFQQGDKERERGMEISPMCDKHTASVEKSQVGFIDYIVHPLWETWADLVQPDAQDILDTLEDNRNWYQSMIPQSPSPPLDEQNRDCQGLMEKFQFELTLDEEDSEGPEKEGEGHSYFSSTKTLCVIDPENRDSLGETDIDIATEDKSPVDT

| SMILES | IC50 [nM] |
| --- | --- |
| CC(=O)N1CCN(Cc2ccc(-c3cccc(-n4c(=O)n([C@H]5CC[C@@H](NC(=O)c6cn7c(n6)CCCC7)CC5)c(=O)c5cc(F)cnc54)c3)cc2)CC1 [Example 218, N-{cis-4-[1-{4′-[(4-acetylpiperazin-1-yl)methyl]biphenyl-3-yl}-6-fluoro-2,4-dioxo-1,4-dihydropyrido[2,3-d]pyrimidin-3(2H)-yl]cyclohexyl}-5,6,7,8-tetrahydroimidazo[1,2-a]pyridine-2-carboxamide] | 0.00631 |
| CC(C)NC(=O)CN1CCN(Cc2ccc(-c3cccc(-n4c(=O)n([C@H]5CC[C@@H](NC(=O)c6cn7c(n6)CCCC7)CC5)c(=O)c5cc(F)cnc54)c3)cc2)CC1 [Example 219, N-{cis-4-[6-fluoro-1-[4′-({4-[2-(isopropylamino)-2-oxoethyl]piperazin-1-yl}methyl)biphenyl-3-yl]-2,4-dioxo-1,4-dihydropyrido[2,3-d]pyrimidin-3(2H)-yl]cyclohexyl}-5,6,7,8-tetrahydroimidazo[1,2-a]pyridine-2-carboxamide] | 0.00501 |
| Cc1cccc2nc(C(=O)N[C@H]3CC[C@@H](n4c(=O)c5cc(F)cnc5n(-c5cccc(-c6ccc(CN7CCCN(C)CC7)cc6)c5)c4=O)CC3)cn12 [Example 220, N-{cis-4-[6-fluoro-1-{4′-[(4-methyl-1,4-diazepan-1-yl)methyl]biphenyl-3-yl}-2,4-dioxo-1,4-dihydropyrido[2,3-d]pyrimidin-3(2H)-yl]cyclohexyl}-5-methylimidazo[1,2-a]pyridine-2-carboxamide] | 0.00794 |
| O=C(N[C@H]1CC[C@@H](n2c(=O)c3cc(F)cnc3n(-c3cccc(-c4ccc(CN5CCN(C6CCCC6)CC5)cc4)c3)c2=O)CC1)c1cn2c(n1)CCCC2 [Example 221, N-{cis-4-[1-{4′-[(4-cyclopentylpiperazin-1-yl)methyl]biphenyl-3-yl}-6-fluoro-2,4-dioxo-1,4-dihydropyrido[2,3-d]pyrimidin-3(2H)-yl]cyclohexyl}-5,6,7,8-tetrahydroimidazo[1,2-a]pyridine-2-carboxamide] | 0.01 |
| O=C(N[C@H]1CC[C@@H](n2c(=O)c3cc(F)cnc3n(-c3cccc(-c4ccc(CN5CCCN(CCO)CC5)cc4)c3)c2=O)CC1)c1cn2c(n1)CCCC2 [Example 222, N-{cis-4-[6-fluoro-1-(4′-{[4-(2-hydroxyethyl)-1,4-diazepan-1-yl]methyl}biphenyl-3-yl)-2,4-dioxo-1,4-dihydropyrido[2,3-d]pyrimidin-3(2H)-yl]cyclohexyl}-5,6,7,8-tetrahydroimidazo[1,2-a]pyridine-2-carboxamide] | 0.00631 |
| O=C(N[C@H]1CC[C@@H](n2c(=O)c3cc(F)cnc3n(-c3cccc(-c4ccc(CN5CCC(N6CCCCC6)CC5)cc4)c3)c2=O)CC1)c1cn2c(n1)CCCC2 [Example 223, N-{cis-4-[1-[4′-(1,4′-bipiperidin-1′-ylmethyl)biphenyl-3-yl]-6-fluoro-2,4-dioxo-1,4-dihydropyrido[2,3-d]pyrimidin-3(2H)-yl]cyclohexyl}-5,6,7,8-tetrahydroimidazo[1,2-a]pyridine-2-carboxamide] | 0.01 |
| O=C(N[C@H]1CC[C@@H](n2c(=O)c3cc(F)cnc3n(-c3cccc(-c4ccc(CN5CCCOCC5)cc4)c3)c2=O)CC1)c1cn2c(n1)CCCC2 [Example 224, N-{cis-4-[6-fluoro-1-[4′-(1,4-oxazepan-4-ylmethyl)biphenyl-3-yl]-2,4-dioxo-1,4-dihydropyrido[2,3-d]pyrimidin-3(2H)-yl]cyclohexyl}-5,6,7,8-tetrahydroimidazo[1,2-a]pyridine-2-carboxamide] | 0.01 |
| CCN(CC)CCN(C)Cc1ccc(-c2cccc(-n3c(=O)n([C@H]4CC[C@@H](NC(=O)c5cn6c(n5)CCCC6)CC4)c(=O)c4cc(F)cnc43)c2)cc1 [Example 225, N-{cis-4-[1-(4′-{[[2-(diethylamino)ethyl](methyl)amino]methyl}biphenyl-3-yl)-6-fluoro-2,4-dioxo-1,4-dihydropyrido[2,3-d]pyrimidin-3(2H)-yl]cyclohexyl}-5,6,7,8-tetrahydroimidazo[1,2-a]pyridine-2-carboxamide] | 0.0158 |
| O=C(N[C@H]1CC[C@@H](n2c(=O)c3cc(F)cnc3n(-c3cccc(-c4ccc(CN5CCC[C@H]5CO)cc4)c3)c2=O)CC1)c1cn2c(n1)CCCC2 [Example 226, N-{cis-4-[6-fluoro-1-(4′-{[(2S)-2-(hydroxymethyl)pyrrolidin-1-yl]methyl}biphenyl-3-yl)-2,4-dioxo-1,4-dihydropyrido[2,3-d]pyrimidin-3(2H)-yl]cyclohexyl}-5,6,7,8-tetrahydroimidazo[1,2-a]pyridine-2-carboxamide] | 0.0501 |
| CCCN1CCN(Cc2ccc(-c3cccc(-n4c(=O)n([C@H]5CC[C@@H](NC(=O)c6cn7c(n6)CCCC7)CC5)c(=O)c5cc(F)cnc54)c3)cc2)CC1 [Example 227, N-{cis-4-[6-fluoro-2,4-dioxo-1-{4′-[(4-propylpiperazin-1-yl)methyl]biphenyl-3-yl}-1,4-dihydropyrido[2,3-d]pyrimidin-3(2H)-yl]cyclohexyl}-5,6,7,8-tetrahydroimidazo[1,2-a]pyridine-2-carboxamide] | 0.00794 |
| Cc1cc(C(=O)N[C@H]2CC[C@@H](n3c(=O)c4cc(F)cnc4n(-c4cccc(-c5ccc(CN6CCNCC6)cc5)c4)c3=O)CC2)nn1C [Example 228, N-{cis-4-[6-fluoro-2,4-dioxo-1-[4′-(piperazin-1-ylmethyl)biphenyl-3-yl]-1,4-dihydropyrido[2,3-d]pyrimidin-3(2H)-yl]cyclohexyl}-1,5-dimethyl-1H-pyrazole-3-carboxamide] | 0.0251 |
| O=C(N[C@H]1CC[C@@H](n2c(=O)c3cc(F)cnc3n(-c3cccc(-c4ccc(CN5CCNCC5)cc4Br)c3)c2=O)CC1)c1cn2cc(F)ccc2n1 [Example 229, N-{cis-4-[1-[2′-Bromo-4′-(piperazin-1-ylmethyl)biphenyl-3-yl]-6-fluoro-2,4-dioxo-1,4-dihydropyrido[2,3-d]pyrimidin-3(2H)-yl]cyclohexyl}-6-fluoroimidazo[1,2-a]pyridine-2-carboxamide] | 0.00631 |
| Cc1cc(-c2ccc(CN3CCNCC3)cc2)cc(-n2c(=O)n([C@H]3CC[C@@H](NC(=O)c4cn5cc(F)ccc5n4)CC3)c(=O)c3cc(F)cnc32)c1 [Example 230, 6-Fluoro-N-{cis-4-[6-fluoro-1-[5-methyl-4′-(piperazin-1-ylmethyl)biphenyl-3-yl]-2,4-dioxo-1,4-dihydropyrido[2,3-d]pyrimidin-3 (2H)-yl]cyclohexyl}imidazo[1,2-a]pyridine-2-carboxamide] | 0.0316 |
| CNCCNCc1ccc(-c2cc(C)cc(-n3c(=O)n([C@H]4CC[C@@H](NC(=O)c5cn6cc(F)ccc6n5)CC4)c(=O)c4cc(F)cnc43)c2)cc1 [Example 231] | 0.126 |
| CC(=O)N[C@H]1CC[C@@H](n2c(=O)c3cc(F)cnc3n(-c3cccc(-c4ccc(CN5CCN(C(C)C)CC5)cc4)c3)c2=O)CC1 [Example 232, N-{cis-4-[6-Fluoro-1-{4′-[(4-isopropylpiperazin-1-yl)methyl]biphenyl-3-yl}-2,4-dioxo-1,4-dihydropyrido[2,3-d]pyrimidin-3(2H)-yl]cyclohexyl}acetamide] | 0.251 |
| CC(C)N1CCN(Cc2ccc(-c3cccc(-n4c(=O)n([C@H]5CC[C@@H](NC(=O)C6CC6)CC5)c(=O)c5cc(F)cnc54)c3)cc2)CC1 [Example 233, N-{cis-4-[6-fluoro-1-{4′-[(4-isopropylpiperazin-1-yl)methyl]biphenyl-3-yl}-2,4-dioxo-1,4-di-hydropyrido[2,3-d]pyrimidin-3(2H)-yl]cyclohexyl}cyclo-propanecarboxamide] | 0.0501 |
